Like-named read-outs stand apart in the source and are kept apart here.
Assays:
[1] = system: HepG2 cells; test: Triglyceride (TAG) measurement assay, one week steatosis model; assay type: cell-based, human; conditions: for activity at 10 µM: Homo sapiens
How it was run: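 HepG2 cells steatosis-induced for one week in high-glucose DMEM/10% FBS with 10 μg/ml insulin and 10 μM T0901317, media changed at days 0, 3 and 5, with 10 μM test compound throughout. Triglyceride measured colorimetrically (OD 570 nm); viability by MTT.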

[2] = system: HepG2 cells; test: Wound healing assay; assay type: cell-based; conditions: Homo sapiens, HepG2, 96 h, day 4, untreated 100% wound closure, read-out: wound healing delayed by
How it was run: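 HepG2 monolayers grown to 95-100% confluence were scratched with a pipette tip and treated with compounds at 1 μM. Wounds were imaged from day 0 until closure in the control group, and wound area was measured from the images.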

[3] = system: HepG2 cells; test: FACs analysis with PI staining (cell cycle); assay type: cell-based, human; conditions: for Cell population G0/G1 / Cell population G2/M / Cell population S: PI FACs, 10 μM, 2 days; for cells in the G2/M phase: histogram plots
Experimental: 400,000 HepG2 cells were seeded in a 6-well plated and treated with 10 μM of the compounds for 2 days. Cells were fixed with 70% ethanol and stained with 50 μg/ml PI. Prepared cells were analysed using BD FACS Canto II Flow Cytometry system at PE-A channel 10,000 cells per group. The data was histogram plotted with BD FACSDiva 9.0.

[4] = system: c-Myc; test: Nuclear protein western blot, c-Myc; assay type: cell-based, human; conditions: 10 μM, 2 days
Experimental: (§1) HepG2 cells were seeded into a 6-well plate at 400,000 cells per well. After treatment with 10 μM of JNK-IN-5A and its derivatives for two days, lysates were harvested with CelLytic M (C2978, Sigma-Aldrich). 20 μg lysate was prepared with 2× Laemmli Sample Buffer (1610737, Biorad). SDS PAGE were performed using Mini-PROTEAN® TGX™ Precast Gels (Bio-Rad) and transferred using Trans-Blot® Turbo™ Transfer System (Bio-Rad). Primary antibody, PARP (95425, Cell signalling), Caspase 3 (ab32042, abcam), Bcl-2 (ab182858), STAT1 (HPA000982, Merk), PKL (06653, Sigma), PKM (4053S, Cell signalling), GAPDH (ab8245, abcam), P53 (ab32389, abcam), p21 (ab109199, abcam), p-S349 p62 (ab211324, abcam), p62 (ab109012, abcam), c-Myc (ab32072, abcam), GPX4 (ab125066, abcam), MMP9 (MA5-32705, Invitrogen), β-actin (ab8227, abcam), and α-tubulin (ab7291, abcam) were blotted overnight and Goat Anti-Rabbit HRP (ab205718) and goat anti-mouse IgG-HRP (sc2005, Santa Cruz Biotechnology, Inc.) were blotted for secondary antibody for one hour. ImageQuantTMLAS 500 (29-0050-63, GE) was used to detect protein bands.

[5] = system: p53; test: Nuclear protein western blot, p53; assay type: cell-based, human; conditions: 10 μM, 2 days; compared to sorafenib and regorafenib
Experimental: as §1

[6] = system: PARP; test: Western blot, cleaved PARP; assay type: cell-based, human; conditions: 10 μM, 2 days
Experimental: as §1

[7] = system: Caspase 3; test: Western blot, active caspase 3; assay type: cell-based, human; conditions: 10 μM, 2 days
Experimental: as §1

[8] = system: HepG2 cells; test: DAPI and PI staining for necrotic cell death; assay type: cell-based, human; conditions: 10 μM, 2 days
Experimental: HepG2 cells were treated with 10 μM of the JNK-IN-5A derivatives for 2 days and cells were stained with DAPI (Blue) and PI (Red) for 30 min, at live cells. PI positive necrotic cells were counted and plotted.

[9] = 168 h, HepG2, 10 μM, one week steatosis induce media, Control 100.00, read-out: TAG (%)
[10] = HepG2, 168 h, ratio between TAG content and cell viability, Control 100.0, read-out: TAG/cell viability

| SMILES | activity at 10 µM [1, 9] [%] | activity at 10 µM [1, 10] [%] | inhibition at 1 µM [2] [%] | cell cycle distribution / arrest ([3]; PI FACS) | Cell population G0/G1 [3] | Cell population G2/M [3] | Cell population S [3] | nuclear c-Myc expression [4] | ratio between TAG content and cell viability [1] | TAG/cell viability ([1]; ratio as printed in text with %) [%] | nuclear-localized p53 [5] | increase in cleaved PARP vs untreated control [6] [times] | cells in the G2/M phase [3] | active caspase 3 levels [7] [times] | necrotic cell death (PI staining) [8] |
| --- | --- | --- | --- | --- | --- | --- | --- | --- | --- | --- | --- | --- | --- | --- | --- |
| N#Cc1c(NC(=O)c2cccc3ccccc23)sc2c1CCCC2 [JNK-IN-5A, N-(3-cyano-4,5,6,7-tetrahydrobenzo[b]thiophen-2-yl)-1-naphthamide] | 33 | 58.4 | 32.7 | significant G2/M cell cycle arrest | 22.7 | 67.3 | 4.4 | significantly reduced |  |  |  |  |  |  |  |
| COc1ccccc1NC(=O)N1CCc2c(sc(NC(=O)c3cccc4ccccc34)c2C#N)C1 [PKL-A152] | 10.8 | 24.5 |  |  |  |  |  |  | low ratio between TAG content and cell viability | 24.5 |  |  |  |  |  |
| N#Cc1c(NC(=O)c2cccc3ccccc23)sc2c1CCN(C(=O)Nc1ccccc1OC(F)(F)F)C2 [PKL-A159] | 4.54 |  | 35.5 |  | 30.5 | 62.4 | 3.3 |  |  |  |  |  |  |  |  |
| N#Cc1c(NC(=O)c2cccc3ccccc23)sc2c1CCN(CC(=O)Nc1cccc(Br)c1)C2 [PKL-B171] | 21.1 | 95.7 | 36.4 |  | 6.6 | 79.1 | 3.6 | most substantial decrease |  |  | significant increase | 87.97 | around 89% | 14.66 | significantly induced necrotic cell death |
| COc1ccc(C(=O)Nc2sc3c(c2C#N)CCCCC3)cc1OC [PKL-A135, N-(3-cyano-5,6,7,8-tetrahydro-4H-cyclohepta[b]thiophen-2-yl)-3,4-dimethoxy-benzamide] | 49.1 | 77.6 | 31.2 |  | 5.5 | 79.9 | 2.0 |  |  |  | significant increase | 78.31 | around 89% | 11.85 | significantly induced necrotic cell death |

— patent publication US20260234159A1, “SMALL MOLECULE TREATMENT OF FATTY LIVER DISEASE AND HCC” (SCANDIEDGE THERAPEUTICS AB, priority 2023, published 2026)
